Here are results for 2 molecules from patent US20050164370A1 (priority 2003, published 2005).

What all share (type): cell-based, yeast
Common to all, as to conditions: DOHLU+Glu, 30° C. for 24 hours

The test system of test [1] is transformed cells TM182-CYC1-ADHIPT5. Description: Liquid culture of transformed cell TM182-CYC1-ADHIPT5 with examinee substance, absorbance. As for the experimental part: The thus obtained culture solutions were diluted with DOHLU+Glu culture medium so that OD600 became 0.200, and then the diluted ones were further diluted with DOHLU+Glu culture medium at a dilution rate of 1/200 to obtain diluted pre-cultured solutions.
(§1) A 96-well assay plate was prepared by filling each well with 1 μL of a DMSO solution of an examinee substance (Abscisic acid or 6-Benzyl aminopurine). In this regard, it is to be noted that the DMSO solution of a examinee substance was prepared so that the concentration thereof became 200 ppm. Simultaneously, an assay plate was prepared by filling each well with 1 μL of DMSO as a blank section.
(§2) Each of the diluted pre-cultured solutions was added in a volume of 100 μL per each well of both of the assay plates, and was cultured at 30° C. for 24 hours. After incubation, the turbidity of each well was measured using a plate reader. The absorbance (OD600) of each of the culture solutions of the transformed cells containing the examinee substance was shown in Table 3. […] Further, the growth speeds of the transformed cells TM182-CRE1-CYC1IPT4 and TM182-CRE1-ADHIPT5 in the culture medium to which 6-Benzyl aminopurine was added were faster than those in the culture medium to which only DMSO was added.
as §2, with “4.” for “3.”, “TM182-CRE1-ADHIPT4, TM182-AHK2-CYC1IPT4, TM182-AHK2-CYC1IPT5” for “TM182-CRE1-CYC1IPT4”, “TM182-AHK2-ADHIPT5” for “TM182-CRE1-ADHIPT5”

Test [2] has as its system transformed cells TM182-CYC1-ADHIPT4. On the procedure:
(§3) Each of the transformed cells TM182-CYC1-CYC1IPT4, TM182-CYC1-ADHIPT4, TM182-CYC1-CYC1IPT5, TM182-CYC1-ADHIPT5, TM182-CRE1-CYC1IPT4, and TM182-CRE1-ADHIPT5 obtained in Example 16 was inoculated in 200 mL of DOHLU+Gal culture medium, and was pre-cultured at 30° C. for 36 hours. The thus obtained culture solutions were diluted with DOHLU+Glu culture medium so that OD600 became 0.200, and then the diluted ones were further diluted with DOHLU+Glu culture medium at a dilution rate of 1/200 to obtain diluted pre-cultured solutions.
as §1
(§4) Each of the diluted pre-cultured solutions was added in a volume of 100 μL per each well of both of the assay plates, and was cultured at 30° C. for 24 hours. After incubation, the turbidity of each well was measured using a plate reader.
(§5) Each of the transformed cells TM182-CYC1-CYC1IPT4, TM182-CYC1-ADHIPT4, TM182-CYC1-CYC1IPT5, TM182-CYC1-ADHIPT5, TM182-CRE1-ADHIPT4, TM182-AHK2-CYC1IPT4, TM182-AHK2-CYC1IPT5 and TM182-AHK2-ADHIPT5 obtained in Example 16 was inoculated in 200 mL of DOHLU+Gal culture medium, and was pre-cultured at 30° C. for 36 hours. The thus obtained culture solutions were diluted with DOHLU+Glu culture medium so that OD600 became 0.200, and then the diluted ones were further diluted with DOHLU+Glu culture medium at a dilution rate of 1/200 to obtain diluted pre-cultured solutions.
as §4

Test [3] relates to transformed cells TM182-CYC1-CYC1IPT4. On the procedure: as §3, §1, §4, §5, §4
Where [4] appears, read: Table 3, TM182-CYC1-ADH-IPT5, 1 μL of 200 ppm DMSO solution per 100 μL.
Setting [5] is: Table 4, TM182-CYC1-ADH-IPT5, 1 μL of 200 ppm DMSO solution per 100 μL.
Setting [6] is: Table 3, TM182-CYC1-ADH-IPT4, 1 μL of 200 ppm DMSO solution per 100 μL.
Where [7] appears, read: Table 4, TM182-CYC1-ADH-IPT4, 1 μL of 200 ppm DMSO solution per 100 μL.
The mark [8] stands for this setting: Table 3, TM182-CYC1-CYC1-IPT4, 1 μL of 200 ppm DMSO solution per 100 μL.
The mark [9] stands for this setting: Table 4, TM182-CYC1-CYC1-IPT4, 1 μL of 200 ppm DMSO solution per 100 μL.

SMILES strings stand for the structures. Read-outs that look alike come from different tables or passages of the source.

On to `CC1=CC(=O)CC(C)(C)[C@@]1(O)/C=C/C(C)=C\C(=O)O` [Compound A, Abscisic acid], for which the “absorbance (OD600) of the culture solution” value in test [1] (setting [4]) is reported as 0.043; in test [1] (setting [5]), 0.035; in test [2] (setting [6]), 0.040; in test [2] (setting [7]) it was 0.035; in test [3] (setting [8]), 0.042; in test [3] (setting [9]), 0.035.
For the molecule `c1ccc(CNc2ncnc3nc[nH]c23)cc1` [Compound B, 6-Benzyl aminopurine], the “absorbance (OD600) of the culture solution” value in test [1] (setting [4]) amounted to 0.043; in test [1] (setting [5]), 0.035; in test [2] (setting [6]), 0.041; in test [2] (setting [7]) it was 0.034; in test [3] (setting [8]), 0.042; in test [3] (setting [9]), 0.034.
